Columns and labels:
db/db mice = assay: blood insulin level in mouse model of diabetes mellitus disease (mouse ELISA); assay type: in vivo
Procedure: In addition, the blood insulin level was analyzed simultaneously with the glucose tolerance test for the mouse model of diabetes mellitus disease (FIG. 88).
Specifically, after 0, 15, 30, 60, 90, 120 and 180 minutes, blood was collected from the orbital veins of mice, and the insulin level in plasma was analyzed using mouse ELISA.

NTSR1 = target: T1, NTSR1 (Homo sapiens, UniProt P30989); assay: luciferase assay system, ghrelin receptor family selectivity; assay type: cell-based; conditions: compared with intrinsic ligand, FIG. 74
T1 construct: expressed in transfected cells
Procedure: (§1) In addition, through the activity test of the HKFY derivatives for similar receptors to GPR39, ghrelin receptor family (ghrelin receptor (GHSR), motilin receptor (MTLR), neurotensin receptor (NTSR1 & NTSR2), neuromedin U receptor (NMU1 & NMU2), TRH (thyrotropin releasing hormone) receptor (TRHR)), the selectivity and specificity for the GPR39 receptor were confirmed.
(§2) Specifically, the degree of activity between the intrinsic ligand and HKFY-34 for each receptor was analyzed using a luciferase assay system (FIG. 74).

GHSR = target: T2, GHSR (Homo sapiens, UniProt Q92847); assay: as above; assay type: cell-based; conditions: compared with intrinsic ligand, FIG. 74
T2 construct: expressed in transfected cells
Procedure: as §1, §2

NMU1 = target: T3, NMU1 (Homo sapiens, UniProt Q9HB89); assay: as above; assay type: cell-based; conditions: compared with intrinsic ligand, FIG. 74
T3 construct: expressed in transfected cells
Procedure: as §1, §2

NMU2 = target: T4, NMU2 (Homo sapiens, UniProt Q9GZQ4); assay: as above; assay type: cell-based; conditions: compared with intrinsic ligand, FIG. 74
T4 construct: expressed in transfected cells
Procedure: as §1, §2

NTSR2 = target: T5, NTSR2 (Homo sapiens, UniProt O95665); assay: as above; assay type: cell-based; conditions: compared with intrinsic ligand, FIG. 74
T5 construct: expressed in transfected cells
Procedure: as §1, §2

MTLR = target: T6, MTLR (Homo sapiens, UniProt O43193); assay: as above; assay type: cell-based; conditions: compared with intrinsic ligand, FIG. 74
T6 construct: expressed in transfected cells
Procedure: as §1, §2

TRHR = target: T7, TRHR (Homo sapiens, UniProt P34981); assay: as above; assay type: cell-based; conditions: compared with intrinsic ligand, FIG. 74
T7 construct: expressed in transfected cells
Procedure: as §1, §2

Irs2 and Ins2 = assay: mRNA expression levels of Irs2 and Ins2 by RT-PCR; assay type: cell-based
Procedure: The mRNA expression levels of Irs2 and Ins2, which are important factors for proliferation and differentiation of pancreatic beta cells, were analyzed through RT-PCR (FIG. 77).

[1] = tested on: HSL, ATGL and Perilipin A in 3T3-L1 cells; assay: mRNA expression of lipolysis signaling factors by RT-PCR in 3T3-L1 cells; assay type: cell-based; conditions: versus isoproterenol positive control
Procedure: In addition, the mRNA expression levels of HSL (hormone-sensitive lipase), ATGL (adipose triglyceride lipase) and Perilipin A, which are important factors for lipolysis signaling according to HKFY-34 treatment, were analyzed through RT-PCR (FIG. 79). […] In addition, it was confirmed that the mRNA expression of all factors was enhanced due to GPR39 through GPR39 siRNA (FIGS. 81 to 83).

[2] = tested on: pERK and pPKA in WAT cells; assay: pERK and pPKA expression by western blot in WAT; assay type: cell-based, mice; conditions: FIG. 86
Procedure: (§3) In order to analyze the mechanism of lipolytic ability according to the HKFY derivative treatment in 3T3-L1 cells and WAT cells, the expression levels of pERK and pPKA were analyzed (FIGS. 85 and 86).
(§4) Specifically, protein was purified from 3T3L-1 cells (Korea Cell Line Bank) and WAT (tissue culture using mice purchased from Central Lab. Animal Inc.) treated with the HKFY derivatives, and then each antibody for pERK, ERK, pPKA, and PKA expressed in mice was used, and the expression level of each protein due to the derivatives was measured through western blot.

[3] = tested on: pERK and pPKA in 3T3-L1 cells; assay: pERK and pPKA expression by western blot in 3T3-L1 cells; assay type: cell-based; conditions: FIG. 85
Procedure: as §3, §4

rat islet = assay: glucose-dependent insulin secretion in isolated rat islets (rat insulin ELISA); assay type: cell-based; conditions: 1 nM to 100 μM, 2.8 mM or 28 mM glucose
Procedure: In addition, the glucose-dependent insulin secretion ability of the HKFY derivative for rat islet was confirmed (FIG. 76).
Specifically, the pancreas was extracted from a 8-week-old SD rat (Damul Science), and islets were isolated. The isolated islets were treated with HKFY-34 at different concentrations (1 nM, 10 nM, 100 nM, 1 μM, 10 μM and 100 μM) in 2.8 mM or 28 mM glucose, and then the amount of the secreted insulin was measured using a rat insulin ELISA.

GPR39 KO mice = assay: glucose tolerance test in GPR39 KO mouse model induced by a high-fat diet; assay type: in vivo; conditions: 16, 17 and 18-week-old GPR39 KO mice, high-fat feed, 0.5, 1, 5 and 10 mg/kg subcutaneously
Procedure: In addition, the glucose tolerance level in the GPR39 KO mouse model induced by a high-fat diet according to the HKFY derivative treatment was analyzed (FIG. 91).
Specifically, obesity was induced by providing male GPR39 KO mice (6 to 7-week-old, Central Lab. Animal Inc.) with a high-fat feed (60% fat chow) for 5-6 weeks. HKFY-34 was administered subcutaneously at a concentration of 0.5, 1, 5 and 10 mg/kg, respectively, to the 16, 17 or 18-week-old GPR39 KO mice, in which obesity was induced. After 30 minutes, glucose (1.5 g/kg) was intraperitoneally administered. After 0, 15, 30, 45, 60, 90, 120 and 180 minutes, blood was collected from the tail of the mice, and the blood glucose was measured with a blood glucose meter (acc-check, Roche, Germany) to analyze the glucose tolerance.

3T3-L1 cells = assay: lipolytic ability (secreted glycerol) in 3T3-L1 cells; assay type: cell-based
Procedure: In addition, lipolytic ability according to the HKFY-34 treatment by concentration (100 nM, 500 nM, […] (FIG. 84). When the signal of lipolysis is transmitted, lipid droplet glycerol and free fatty acid in adipocytes are secreted as final products and come out of the cell. At this time, the degree of lipolysis can be confirmed by quantifying the secreted glycerol. Isoproterenol, a positive control group, is an agonist of β-adrenergic receptors and mainly promotes lipolytic ability in adipocytes.

T2 sequence (Q92847 whole entry, species assumed): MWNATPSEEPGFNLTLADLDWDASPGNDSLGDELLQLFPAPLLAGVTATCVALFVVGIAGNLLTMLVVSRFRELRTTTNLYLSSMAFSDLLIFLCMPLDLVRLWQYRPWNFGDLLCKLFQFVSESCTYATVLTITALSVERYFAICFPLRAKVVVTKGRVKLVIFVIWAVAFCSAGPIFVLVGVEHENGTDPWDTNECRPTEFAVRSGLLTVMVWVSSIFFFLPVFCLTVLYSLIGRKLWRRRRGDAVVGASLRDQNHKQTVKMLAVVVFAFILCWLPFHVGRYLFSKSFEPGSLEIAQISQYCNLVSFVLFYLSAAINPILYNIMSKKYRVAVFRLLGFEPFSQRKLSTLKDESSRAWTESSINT
T4 sequence (Q9GZQ4 whole entry, species assumed): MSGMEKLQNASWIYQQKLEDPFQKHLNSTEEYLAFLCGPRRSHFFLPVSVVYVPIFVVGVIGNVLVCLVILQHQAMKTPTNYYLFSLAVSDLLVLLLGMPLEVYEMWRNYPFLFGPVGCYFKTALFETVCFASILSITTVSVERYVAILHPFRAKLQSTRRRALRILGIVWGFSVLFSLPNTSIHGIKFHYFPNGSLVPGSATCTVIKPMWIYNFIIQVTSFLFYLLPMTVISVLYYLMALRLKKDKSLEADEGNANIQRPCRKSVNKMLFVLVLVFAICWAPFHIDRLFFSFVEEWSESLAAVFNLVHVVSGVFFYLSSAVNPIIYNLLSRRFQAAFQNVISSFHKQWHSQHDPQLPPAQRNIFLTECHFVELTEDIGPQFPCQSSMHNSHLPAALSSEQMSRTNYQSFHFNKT
T7 sequence (P34981 whole entry, species assumed): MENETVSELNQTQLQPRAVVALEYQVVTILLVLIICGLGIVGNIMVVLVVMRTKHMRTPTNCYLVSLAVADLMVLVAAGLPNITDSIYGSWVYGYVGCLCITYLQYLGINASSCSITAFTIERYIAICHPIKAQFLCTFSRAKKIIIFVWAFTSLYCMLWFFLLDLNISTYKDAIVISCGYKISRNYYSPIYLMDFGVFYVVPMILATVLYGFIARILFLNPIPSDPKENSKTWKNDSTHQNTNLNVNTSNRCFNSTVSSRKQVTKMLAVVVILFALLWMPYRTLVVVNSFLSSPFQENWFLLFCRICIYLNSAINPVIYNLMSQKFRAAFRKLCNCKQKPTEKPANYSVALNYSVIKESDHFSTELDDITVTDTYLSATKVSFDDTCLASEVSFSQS
T5 sequence (O95665 whole entry, species assumed): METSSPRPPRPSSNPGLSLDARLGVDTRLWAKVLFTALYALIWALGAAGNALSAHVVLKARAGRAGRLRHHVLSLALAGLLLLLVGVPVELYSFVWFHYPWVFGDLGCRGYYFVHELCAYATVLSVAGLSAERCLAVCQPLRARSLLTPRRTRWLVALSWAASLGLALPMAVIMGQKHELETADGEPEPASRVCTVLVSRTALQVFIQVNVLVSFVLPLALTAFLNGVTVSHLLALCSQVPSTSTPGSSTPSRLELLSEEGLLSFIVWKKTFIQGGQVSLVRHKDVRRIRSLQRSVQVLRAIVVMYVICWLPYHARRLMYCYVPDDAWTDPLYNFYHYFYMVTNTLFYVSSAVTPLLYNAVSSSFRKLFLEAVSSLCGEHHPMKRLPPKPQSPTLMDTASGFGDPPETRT
T6 sequence (O43193 whole entry, species assumed): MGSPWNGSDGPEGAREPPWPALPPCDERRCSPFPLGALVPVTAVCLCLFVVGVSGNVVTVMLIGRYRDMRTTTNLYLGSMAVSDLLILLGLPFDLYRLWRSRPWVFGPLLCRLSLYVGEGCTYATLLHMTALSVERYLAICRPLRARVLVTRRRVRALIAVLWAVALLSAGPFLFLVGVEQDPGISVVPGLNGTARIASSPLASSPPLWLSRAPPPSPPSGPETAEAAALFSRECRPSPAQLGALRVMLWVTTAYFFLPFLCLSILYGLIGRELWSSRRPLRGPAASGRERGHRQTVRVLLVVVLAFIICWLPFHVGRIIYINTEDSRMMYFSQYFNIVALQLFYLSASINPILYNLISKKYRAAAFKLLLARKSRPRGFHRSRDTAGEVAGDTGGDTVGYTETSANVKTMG
T1 sequence (P30989 whole entry, species assumed): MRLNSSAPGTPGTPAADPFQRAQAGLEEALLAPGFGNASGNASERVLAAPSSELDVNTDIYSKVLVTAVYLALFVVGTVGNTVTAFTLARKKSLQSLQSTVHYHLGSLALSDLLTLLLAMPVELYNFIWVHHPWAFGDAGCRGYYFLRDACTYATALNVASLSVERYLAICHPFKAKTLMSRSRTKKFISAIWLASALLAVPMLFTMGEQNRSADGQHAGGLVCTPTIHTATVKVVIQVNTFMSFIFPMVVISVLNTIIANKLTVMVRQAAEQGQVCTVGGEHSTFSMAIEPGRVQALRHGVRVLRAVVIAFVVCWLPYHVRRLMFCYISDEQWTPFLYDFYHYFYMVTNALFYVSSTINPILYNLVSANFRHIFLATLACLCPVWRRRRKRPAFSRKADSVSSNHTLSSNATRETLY
T3 sequence (Q9HB89 whole entry): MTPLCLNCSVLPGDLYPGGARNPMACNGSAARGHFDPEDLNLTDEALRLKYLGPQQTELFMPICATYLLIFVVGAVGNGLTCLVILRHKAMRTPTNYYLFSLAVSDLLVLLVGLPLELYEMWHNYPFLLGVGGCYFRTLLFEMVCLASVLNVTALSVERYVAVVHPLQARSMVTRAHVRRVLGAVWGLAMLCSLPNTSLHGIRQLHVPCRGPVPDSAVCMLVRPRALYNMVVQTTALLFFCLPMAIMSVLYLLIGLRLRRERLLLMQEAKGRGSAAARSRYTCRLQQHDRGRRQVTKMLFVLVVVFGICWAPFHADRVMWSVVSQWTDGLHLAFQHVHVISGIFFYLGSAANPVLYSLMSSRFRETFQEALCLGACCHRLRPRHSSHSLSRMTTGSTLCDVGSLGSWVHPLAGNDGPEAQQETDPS

CCCCCCCC(=O)NCCCC[C@H](NC(=O)[C@@H](N)Cc1cn(C(c2ccccc2)c2ccccc2)cn1)C(=O)N[C@H](Cc1ccc(C)cc1)C(=O)N[C@@H](Cc1ccc(O)cc1)C(=O)O [HKFY-34, ((R)-2-((S)-2-((S)-2-amino-3-(1-benzhydryl-1H-imidazol-4-yl)propanamido)-6-octanamidohexanamido)-3-(p-tolyl)propanoyl)-L-tyrosine]
insulin secretion (plasma insulin level) (db/db mice; db/db mice, 0.5, 1, 5 and 10 mg/kg subcutaneously): increased in a concentration dependent manner | insulin secretion level (db/db mice; db/db mice, 5 and 10 mg/kg): significantly increased | activity for NTSR1 (NTSR1): very low | activity for GHSR (GHSR): very low | activity for NMU1 (NMU1): very low | activity for NMU2 (NMU2): very low | activity for NTSR2 (NTSR2): very low | activity for MTLR (MTLR): very low | activity for TRHR (TRHR): very low | mRNA expression of Ins2 (Irs2 and Ins2; GPR39 siRNA treated group): hardly achieved | mRNA expression of Irs2 (Irs2 and Ins2; GPR39 siRNA treated group): hardly achieved | mRNA expression level of Ins2 (Irs2 and Ins2; RT-PCR, FIG. 77): increased | mRNA expression level of Irs2 (Irs2 and Ins2; RT-PCR, FIG. 77): increased | mRNA expression of ATGL [1]: increased to a degree similar to that of isoproterenol | mRNA expression of HSL [1]: increased to a degree similar to that of isoproterenol | mRNA expression of Perilipin A [1]: increased to a degree similar to that of isoproterenol | expression of pERK compared to ERK [2]: increased | expression of pPKA compared to PKA [2]: increased | expression of pERK compared to ERK [3]: increased | expression of pPKA compared to PKA [3]: increased | insulin secretion ability (rat islet): concentration dependent (dose-dependent) manner | glucose tolerance (GPR39 KO mice): significant glucose tolerance was not observed | lipolytic ability (3T3-L1 cells; HKFY-34 concentration 10 μM or higher): significantly increased | lipolytic ability (3T3-L1 cells; by concentration, FIG. 84): increased in a concentration dependent manner
